The values that follow come from patent US8716303B2, “N-(hetero)aryl-pyrrolidine derivatives of pyrazol-4-yl-pyrrolo[2,3-d]pyrimidines and pyrrol-3-yl-pyrrolo[2,3-d]pyrimidines as janus kinase inhibitors” (Incyte Corporation, priority 2009, dated 2014).

Structures are written as SMILES.

The target in assay [1] is T1, human JAK1 (a.a. 837-1142) (Homo sapiens, UniProt P23458).
T1 construct: human JAK1 (a.a. 837-1142); His tag (N); made in house; host or cells: insect cells (baculovirus)
The experiment in a line: In vitro JAK kinase assay (HTRF, phosphorylation of a biotinylated peptide), JAK1. The format is biochemical. In short, it runs like this: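 His-tagged catalytic domains (JAK1 a.a. 837-1142, JAK2 a.a. 828-1132) from insect cells phosphorylate 500 nM biotinylated peptide in 50 mM Tris pH 7.8, 100 mM NaCl, 5 mM DTT; ATP at Km (90 μM JAK1, 30 μM JAK2) or 1 mM, as indicated. 1 h at RT; EDTA stop, HTRF readout; IC50s.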
A general note: In TR-FRET formats the signal depends on donor and acceptor labels being close together.

The next assay has as its target T2, Jak2 (a.a. 828-1132) (Homo sapiens, UniProt O60674).
T2 construct: Jak2 (a.a. 828-1132); His tag (N); made in house; host or cells: insect cells (baculovirus)
Briefly: In vitro JAK kinase assay (HTRF, phosphorylation of a biotinylated peptide), JAK2, reported as JAK2/JAK1 ratio. The format is biochemical.

T1 sequence (P23458 849-1154): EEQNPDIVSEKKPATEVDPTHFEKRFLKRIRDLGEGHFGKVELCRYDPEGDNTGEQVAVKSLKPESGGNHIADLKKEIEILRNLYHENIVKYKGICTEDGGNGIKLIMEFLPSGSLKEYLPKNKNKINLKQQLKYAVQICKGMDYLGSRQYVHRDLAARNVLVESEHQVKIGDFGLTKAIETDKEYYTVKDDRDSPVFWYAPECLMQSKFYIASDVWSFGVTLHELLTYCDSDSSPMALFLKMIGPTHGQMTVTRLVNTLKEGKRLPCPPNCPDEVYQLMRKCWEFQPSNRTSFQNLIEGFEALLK
T2 sequence (O60674 828-1132): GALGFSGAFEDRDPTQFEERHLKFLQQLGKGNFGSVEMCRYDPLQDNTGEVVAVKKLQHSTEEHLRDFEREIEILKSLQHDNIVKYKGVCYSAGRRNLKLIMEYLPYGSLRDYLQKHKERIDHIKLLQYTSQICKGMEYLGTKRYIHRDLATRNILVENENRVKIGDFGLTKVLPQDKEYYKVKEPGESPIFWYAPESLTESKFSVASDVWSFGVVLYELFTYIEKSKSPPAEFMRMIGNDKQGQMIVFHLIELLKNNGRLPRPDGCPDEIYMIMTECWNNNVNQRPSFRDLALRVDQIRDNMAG

Regarding `N#CCC(C1CCN(c2nc3cccnc3o2)C1)n1ccc(-c2ncnc3[nH]ccc23)c1` (single isomer, unassigned) [Example 33, 3-(1-[1,3]oxazolo[5,4-b]pyridin-2-ylpyrrolidin-3-yl)-3-[3-(7H-pyrrolo[2,3-d]pyrimidin-4-yl)-1H-pyrrol-1-yl]propanenitrile phosphate], the IC50 (commonly the concentration needed to halve the response being measured) in assay [1] (Assay Conditions 1 mM ATP) is < 50 nM. For the same molecule, at Jak2 (a.a. 828-1132) (Assay Conditions 1 mM ATP), the “JAK2/JAK1 IC50 ratio” value is on record as 34.

Consider `N#CCC(C1CCN(c2cccc(Cl)[n+]2[O-])C1)n1cc(-c2ncnc3[nH]ccc23)cn1` (single isomer, unassigned) [Example 45, 3-[1-(6-chloro-1-oxidopyridin-2-yl)pyrrolidin-3-yl]-3-[4-(7H-pyrrolo[2,3-d]pyrimidin-4-yl)-1H-pyrazol-1-yl]propanenitrile], for which, in assay [1] (Assay Conditions Km (ATP 90 μM for Jak1)), the IC50 was < 50 nM. The “JAK2/JAK1 IC50 ratio” value at Jak2 (a.a. 828-1132) (Assay Conditions Km (ATP 90 μM for Jak1, 30 μM for Jak2)) came out at 7.4.

In the case of `N#Cc1nnccc1N1CC[C@H](C(CF)n2cc(-c3ncnc4[nH]ccc34)cn2)C1` (single isomer, unassigned) [Example 116], the IC50 in assay [1] (Assay Conditions 1 mM ATP) was < 50 nM. Also, on Jak2 (a.a. 828-1132) (Assay Conditions 1 mM ATP), the “JAK2/JAK1 IC50 ratio” value is reported as 6.0.

Turning to `N#CCC(C1CCN(c2ccnc(S)n2)C1)n1cc(-c2ncnc3[nH]ccc23)cn1` (single isomer, unassigned) [Example 150, 3-[1-(2-mercaptopyrimidin-4-yl)pyrrolidin-3-yl]-3-[4-(7H-pyrrolo[2,3-d]pyrimidin-4-yl)-1H-pyrazol-1-yl]propanenitrile], in assay [1] (Assay Conditions 1 mM ATP), the IC50 is < 50 nM. The “JAK2/JAK1 IC50 ratio” value at Jak2 (a.a. 828-1132) (Assay Conditions 1 mM ATP) is recorded as 3.2.

Consider `CN(C)S(=O)(=O)Nc1nccc(N2CCC(C(CC#N)n3cc(-c4ncnc5[nH]ccc45)cn3)C2)n1` (single isomer, unassigned) [Example 151, N-[4-(3-{2-cyano-1-[4-(7H-pyrrolo[2,3-d]pyrimidin-4-yl)-1H-pyrazol-1-yl]ethyl}pyrrolidin-1-yl)pyrimidin-2-yl]-N,N-dimethylsulfonamide], for which the IC50 in assay [1] (Assay Conditions 1 mM ATP) was < 50 nM. Moreover, the “JAK2/JAK1 IC50 ratio” value at Jak2 (a.a. 828-1132) (Assay Conditions 1 mM ATP) is on record as 12.5.

In the case of `CNC(=O)c1cc(N2CCC(C(CC#N)n3cc(-c4ncnc5[nH]ccc45)cn3)C2)ccn1` (single isomer, unassigned) [Example 152, 4-(3-{2-cyano-1-[4-(7H-pyrrolo[2,3-d]pyrimidin-4-yl)-1H-pyrazol-1-yl]ethyl}pyrrolidin-1-yl)-N-methylpyridine-2-carboxamide], in assay [1] (Assay Conditions 1 mM ATP), the IC50 is < 50 nM. Also, the “JAK2/JAK1 IC50 ratio” value on Jak2 (a.a. 828-1132) (Assay Conditions 1 mM ATP) was 6.7.

Consider `CN(C)C(=O)c1cc(N2CCC(C(CC#N)n3cc(-c4ncnc5[nH]ccc45)cn3)C2)ccn1` (single isomer, unassigned) [Example 153, 4-(3-{2-cyano-1-[4-(7H-pyrrolo[2,3-d]pyrimidin-4-yl)-1H-pyrazol-1-yl]ethyl}pyrrolidin-1-yl)-N,N-dimethylpyridine-2-carboxamide], for which the IC50 in assay [1] (Assay Conditions 1 mM ATP) is < 50 nM. Besides, on Jak2 (a.a. 828-1132) (Assay Conditions 1 mM ATP), the “JAK2/JAK1 IC50 ratio” value is >11.1.

Regarding `N#CCC(C1CCN(c2ccnc(C(=O)Nc3ccccc3)c2)C1)n1cc(-c2ncnc3[nH]ccc23)cn1` (single isomer, unassigned) [Example 154, 4-(3-{2-cyano-1-[4-(7H-pyrrolo[2,3-d]pyrimidin-4-yl)-1H-pyrazol-1-yl]ethyl}pyrrolidin-1-yl)-N-phenylpyridine-2-carboxamide], in assay [1] (Assay Conditions 1 mM ATP), the IC50 is < 50 nM. For the same molecule, the “JAK2/JAK1 IC50 ratio” value on Jak2 (a.a. 828-1132) (Assay Conditions 1 mM ATP) is given as >11.8.

Regarding `N#CCC(C1CCN(c2ccc3c(n2)OCC3)C1)n1cc(-c2ncnc3[nH]ccc23)cn1` (single isomer, unassigned) [Example 155, 3-[1-(2,3-dihydrofuro[2,3-b]pyridin-6-yl)pyrrolidin-3-yl]-3-[4-(7H-pyrrolo[2,3-d]pyrimidin-4-yl)-1H-pyrazol-1-yl]propanenitrile], the IC50 in assay [1] (Assay Conditions 1 mM ATP) lay within 50 to 100 nM. Besides, the “JAK2/JAK1 IC50 ratio” value at Jak2 (a.a. 828-1132) (Assay Conditions 1 mM ATP) was found to be 5.3.

For the molecule `N#CCC(C1CCN(c2ccc3ccsc3n2)C1)n1cc(-c2ncnc3[nH]ccc23)cn1` (single isomer, unassigned) [Example 156, 3-[4-(7H-pyrrolo[2,3-d]pyrimidin-4-yl)-1H-pyrazol-1-yl]-3-(1-thieno[2,3-b]pyridin-6-ylpyrrolidin-3-yl)propanenitrile], the IC50 in assay [1] (Assay Conditions 1 mM ATP) was < 50 nM. The “JAK2/JAK1 IC50 ratio” value on Jak2 (a.a. 828-1132) (Assay Conditions 1 mM ATP) is 8.0.

With `N#CCC(C1CCN(c2ccc3c(n2)C(F)(F)CC3)C1)n1cc(-c2ncnc3[nH]ccc23)cn1` (single isomer, unassigned) [Example 157, 3-[1-(7,7-difluoro-6,7-dihydro-5H-cyclopenta[b]pyridin-2-yl)pyrrolidin-3-yl]-3-[4-(7H-pyrrolo[2,3-d]pyrimidin-4-yl)-1H-pyrazol-1-yl]propanenitrile bis(trifluoroacetate)], the IC50 in assay [1] (Assay Conditions 1 mM ATP) was < 50 nM. Further, the “JAK2/JAK1 IC50 ratio” value on Jak2 (a.a. 828-1132) (Assay Conditions 1 mM ATP) is on record as >5.3.

On to `N#CCC(C1CCN(c2nc3cccc(F)c3o2)C1)n1ccc(-c2ncnc3[nH]ccc23)c1` (single isomer, unassigned) [Example 158-1, 3-[1-(7-fluoro-1,3-benzoxazol-2-yl)pyrrolidin-3-yl]-3-[3-(7H-pyrrolo[2,3-d]pyrimidin-4-yl)-1H-pyrrol-1-yl]propanenitrile], for which the IC50 in assay [1] (Assay Conditions 1 mM ATP) was < 50 nM. Besides, on Jak2 (a.a. 828-1132) (Assay Conditions 1 mM ATP), the “JAK2/JAK1 IC50 ratio” value came to 22.5.

Regarding `N#CCC(C1CCN(c2nc3cccc(F)c3o2)C1)n1ccc(-c2ncnc3[nH]ccc23)c1` (single isomer, unassigned) [Example 158-2, 3-[1-(7-fluoro-1,3-benzoxazol-2-yl)pyrrolidin-3-yl]-3-[3-(7H-pyrrolo[2,3-d]pyrimidin-4-yl)-1H-pyrrol-1-yl]propanenitrile], in assay [1] (Assay Conditions 1 mM ATP), the IC50 was < 50 nM. Also, the “JAK2/JAK1 IC50 ratio” value on Jak2 (a.a. 828-1132) (Assay Conditions 1 mM ATP) is recorded as 19.0.

Consider `N#CCC(C1CCN(c2nc3cccc(Br)c3o2)C1)n1cc(-c2ncnc3[nH]ccc23)cn1.O=C(O)C(F)(F)F` (single isomer, unassigned) [Example 159, 3-[1-(7-bromo-1,3-benzoxazol-2-yl)pyrrolidin-3-yl]-3-[4-(7H-pyrrolo[2,3-d]pyrimidin-4-yl)-1H-pyrazol-1-yl]propanenitrile trifluoracetate], for which the IC50 in assay [1] (Assay Conditions 1 mM ATP) was < 50 nM. Also, at Jak2 (a.a. 828-1132) (Assay Conditions 1 mM ATP), the “JAK2/JAK1 IC50 ratio” value was 12.9.

`N#CCC(C1CCN(c2nc3cccc(C#N)c3o2)C1)n1cc(-c2ncnc3[nH]ccc23)cn1` (single isomer, unassigned) [Example 160, 2-(3-{2-cyano-1-[4-(7H-pyrrolo[2,3-d]pyrimidin-4-yl)-1H-pyrazol-1-yl]ethyl}pyrrolidin-1-yl)-1,3-benzoxazole-7-carbonitrile]: in assay [1] (Assay Conditions 1 mM ATP), the IC50 is < 50 nM. Moreover, the “JAK2/JAK1 IC50 ratio” value at Jak2 (a.a. 828-1132) (Assay Conditions 1 mM ATP) is >11.4.

As for `N#CCC(C1CCN(c2nc3cccc(O)c3o2)C1)n1cc(-c2ncnc3[nH]ccc23)cn1` (single isomer, unassigned) [Example 161, 3-[1-(7-hydroxy-1,3-benzoxazol-2-yl)pyrrolidin-3-yl]-3-[4-(7H-pyrrolo[2,3-d]pyrimidin-4-yl)-1H-pyrazol-1-yl]propanenitrile], the IC50 in assay [1] (Assay Conditions 1 mM ATP) was < 50 nM. On Jak2 (a.a. 828-1132) (Assay Conditions 1 mM ATP), the “JAK2/JAK1 IC50 ratio” value is reported as 24.7.

On to `COc1cccc2nc(N3CCC(C(CC#N)n4cc(-c5ncnc6[nH]ccc56)cn4)C3)oc12` (single isomer, unassigned) [Example 162, 3-[1-(7-methoxy-1,3-benzoxazol-2-yl)pyrrolidin-3-yl]-3-[4-(7H-pyrrolo[2,3-d]pyrimidin-4-yl)-1H-pyrazol-1-yl]propanenitrile], for which the IC50 in assay [1] (Assay Conditions 1 mM ATP) was < 50 nM. Besides, the “JAK2/JAK1 IC50 ratio” value on Jak2 (a.a. 828-1132) (Assay Conditions 1 mM ATP) was 7.7.

With `CCOc1cccc2nc(N3CCC(C(CC#N)n4cc(-c5ncnc6[nH]ccc56)cn4)C3)oc12` (single isomer, unassigned) [Example 163, 3-(4-(7H-pyrrolo[2,3-d]pyrimidin-4-yl)-1H-pyrazol-1-yl)-3-(1-(7-ethoxybenzo[d]oxazol-2-yl)pyrrolidin-3-yl)propanenitrile], the half-maximal inhibitory concentration (IC50) in assay [1] (Assay Conditions 1 mM ATP) is < 50 nM. In addition, the “JAK2/JAK1 IC50 ratio” value on Jak2 (a.a. 828-1132) (Assay Conditions 1 mM ATP) amounted to 3.3.

For the molecule `N#CCC(C1CCN(c2nc3cccc(OC(F)F)c3o2)C1)n1cc(-c2ncnc3[nH]ccc23)cn1` (single isomer, unassigned) [Example 164, 3-(4-(7H-pyrrolo[2,3-d]pyrimidin-4-yl)-1H-pyrazol-1-yl)-3-(1-(7-(difluoromethoxy)benzo[d]oxazol-2-yl)pyrrolidin-3-yl)propanenitrile], in assay [1] (Assay Conditions 1 mM ATP), the IC50 was < 50 nM. In addition, at Jak2 (a.a. 828-1132) (Assay Conditions 1 mM ATP), the “JAK2/JAK1 IC50 ratio” value was found to be 10.9.

Turning to `N#CCC(C1CCN(c2nc3c(O)cccc3o2)C1)n1cc(-c2ncnc3[nH]ccc23)cn1` (single isomer, unassigned) [Example 165, 3-[1-(4-hydroxy-1,3-benzoxazol-2-yl)pyrrolidin-3-yl]-3-[4-(7H-pyrrolo[2,3-d]pyrimidin-4-yl)-1H-pyrazol-1-yl]propanenitrile], the IC50 in assay [1] (Assay Conditions 1 mM ATP) is < 50 nM. Further, the “JAK2/JAK1 IC50 ratio” value at Jak2 (a.a. 828-1132) (Assay Conditions 1 mM ATP) is recorded as 7.1.

As for `N#CCC(C1CCN(c2nc3cccc(CO)c3o2)C1)n1cc(-c2ncnc3[nH]ccc23)cn1` (single isomer, unassigned) [Example 166, 3-{1-[7-(hydroxymethyl)-1,3-benzoxazol-2-yl]pyrrolidin-3-yl}-3-[4-(7H-pyrrolo[2,3-d]pyrimidin-4-yl)-1H-pyrazol-1-yl]propanenitrile], the IC50 in assay [1] (Assay Conditions 1 mM ATP) was < 50 nM. Besides, at Jak2 (a.a. 828-1132) (Assay Conditions 1 mM ATP), the “JAK2/JAK1 IC50 ratio” value was >8.7.

With `N#CCC(C1CCN(c2ncc3ccoc3c2C#N)C1)n1cc(-c2ncnc3[nH]ccc23)cn1` (single isomer, unassigned) [Example 169, 6-(3-{2-cyano-1-[4-(7H-pyrrolo[2,3-d]pyrimidin-4-yl)-1H-pyrazol-1-yl]ethyl}pyrrolidin-1-yl)furo[3,2-c]pyridine-7-carbonitrile], the IC50 in assay [1] (Assay Conditions 1 mM ATP) was < 50 nM. The “JAK2/JAK1 IC50 ratio” value at Jak2 (a.a. 828-1132) (Assay Conditions 1 mM ATP) is recorded as >13.3.
